Source: ChEMBL document CHEMBL5537157, “Selective Antitumor Effect and Lower Toxicity of Mitochondrion-Targeting Derivatization of Triptolide” (J Med Chem, 2024)
Calls of active or inactive are those of the source. The rule behind the calls is not given here.

How the values were obtained:
NCI-H460 [1] = experiment: Cytotoxicity against human NCI-H460 cells assessed as inhibition of cell viability incubated for 48 hrs by MTT assay; format: functional, cell-based; conditions: NCI-H460, 48 h
[2] = Drug accumulation in mitochondria of human NCI-H1975 cells at 600 nM incubated for 5 hrs by Red CMXRos probe based analysis; format: ADME; conditions: nci-h1975, 5 h, 0.6 µM
[3] = Drug accumulation in mitochondria of human NCI-H1975 cells at 10 uM incubated for 7 hrs by HPLC analysis; format: ADME; conditions: nci-h1975, 7 h
NCI-H1975 [4] = experiment: Induction of early apoptosis in human NCI-H1975 cells at 50 to 400 nM incubated for 24 hrs by Annexin V-FITC/PI staining based flow cytometry; format: functional, cell-based; conditions: dose 50-400 nM
NCI-H1975 [5] = experiment: Induction of late apoptosis in human NCI-H1975 cells at 50 to 400 nM incubated for 24 hrs by Annexin V-FITC/PI staining based flow cytometry; format: functional, cell-based; conditions: dose 50-400 nM
NCI-H1975 [6] = experiment: Induction of ROS generation in human NCI-H1975 cells incubated for 24 hrs by DCFH-DA probe based analysis; format: functional, cell-based; conditions: dose 0.05-0.4 µM
NCI-H1975 [7] = experiment: Inhibition of mitochondrial membrane potential in human NCI-H1975 cells at 200 nM incubated for 24 hrs by JC-1 staining based flow cytometry; format: functional, cell-based
NCI-H1975 [8] = experiment: Inhibition of cell migration in human NCI-H1975 cells at 2.5 to 5 nM incubated upto 72 hrs by scratch healing assay; format: functional, cell-based; conditions: dose 2.5-5 nM
[9] = Toxicity in zebrafish at 2 uM; design: species or system Danio rerio; conditions: in vivo
NCI-H1975 [10] = experiment: Inhibition of cell proliferation in human NCI-H1975 cells xenografted in zebrafish at 1 to 2 uM measured after 48 hrs by confocal microscopy; format: functional, cell-based; conditions: dose 1-2 µM
[11] = Developmental toxicity in zebrafish AB zygotes assessed as animal mortality at 4 uM treated at 6 hrs post-fertilization measured at 24 to 72 hrs post-fertilization; design: species or system Danio rerio; conditions: in vivo, time 18-66 hrs
[12] = Teratogenic toxicity in zebrafish AB zygotes at 2 to 4 uM treated at 6 hrs post-fertilization measured at 24 to 72 hrs post-fertilization; design: species or system Danio rerio; conditions: in vivo, dose lower 2 µM, time lower 18 hrs, dose upper 4 µM, time upper 66 hrs
[13] = Renal toxicity in zebrafish assessed as FITC dye residue at 2 uM treated for 24 hrs followed by dye treatment measured after 6 hrs by fluorescence microscopy; design: species or system Danio rerio; conditions: in vivo, 30 h
[14] = Toxicity in zebrafish embryo assessed as degree of periocular edema at 0.5 uM pretreated with compound followed by replacement of growth liquid by microscopy (reference value: 0.00 %); design: species or system Danio rerio; conditions: in vivo
[15] = Toxicity in zebrafish embryo assessed as degree of periocular edema at 1 uM pretreated with compound followed by replacement of growth liquid by microscopy (reference value: 0.00 %); design: species or system Danio rerio; conditions: in vivo
[16] = Toxicity in zebrafish embryo assessed as degree of periocular edema at 2 uM pretreated with compound followed by replacement of growth liquid by microscopy (reference value: 0.00 %); design: species or system Danio rerio; conditions: in vivo
[17] = Toxicity in zebrafish embryo assessed as death rate at 0.5 uM pretreated with compound followed by replacement of growth liquid by microscopy (reference value: 0.00 %); design: species or system Danio rerio; conditions: in vivo, read-out: Activity
[18] = Toxicity in zebrafish embryo assessed as death rate at 1 uM pretreated with compound followed by replacement of growth liquid by microscopy (reference value: 2.22 +/- 3.84 %); design: species or system Danio rerio; conditions: in vivo, read-out: Activity
[19] = Toxicity in zebrafish embryo assessed as death rate at 2 uM pretreated with compound followed by replacement of growth liquid by microscopy (reference value: 2.22 +/- 3.84 %); design: species or system Danio rerio; conditions: in vivo, read-out: Activity
[20] = Toxicity in zebrafish embryo assessed as death rate at 4 uM pretreated with compound followed by replacement of growth liquid by microscopy (reference value: 2.22 +/- 3.84 %); design: species or system Danio rerio; conditions: in vivo, read-out: Activity
[21] = Toxicity in zebrafish embryo assessed as liver development at 0.25 uM with replacement of new growth solution daily by fluorescence microscopy (reference value: 100.00 +/- 8.64 %); format: tissue-based, Danio rerio; conditions: in vivo
[22] = Toxicity in zebrafish embryo assessed as liver development at 0.5 uM with replacement of new growth solution daily by fluorescence microscopy (reference value: 100.00 +/- 8.64 %); format: tissue-based, Danio rerio; conditions: in vivo
[23] = Toxicity in zebrafish embryo assessed as liver development at 1 uM with replacement of new growth solution daily by fluorescence microscopy (reference value: 100.00 +/- 8.64 %); format: tissue-based, Danio rerio; conditions: in vivo
[24] = Toxicity in zebrafish embryo assessed as damage effect in liver development at 0.25 uM with replacement of new growth solution daily by fluorescence microscopy relative to control; design: species or system Danio rerio; conditions: in vivo
[25] = Toxicity in zebrafish embryo assessed as damage effect in liver development at 0.5 uM with replacement of new growth solution daily by fluorescence microscopy relative to control; format: tissue-based, Danio rerio; conditions: in vivo
[26] = Toxicity in zebrafish embryo assessed as liver function at 0.25 uM with replacement of new growth solution daily by fluorescence microscopy (reference value: 100 +/- 8.89 %); format: tissue-based, Danio rerio; conditions: in vivo
[27] = Toxicity in zebrafish embryo assessed as liver function at 0.5 uM with replacement of new growth solution daily by fluorescence microscopy (reference value: 100 +/- 8.89 %); format: tissue-based, Danio rerio; conditions: in vivo
[28] = Toxicity in zebrafish embryo assessed as damage effect in liver function at 0.25 uM with replacement of new growth solution daily by fluorescence microscopy relative to control; format: tissue-based, Danio rerio; conditions: in vivo
[29] = Toxicity in zebrafish embryo assessed as damage effect in liver function at 0.5 uM with replacement of new growth solution daily by fluorescence microscopy relative to control; format: tissue-based, Danio rerio; conditions: in vivo
[30] = Toxicity in zebrafish embryo assessed as damage effect in liver function at 1 uM with replacement of new growth solution daily by fluorescence microscopy relative to control; design: species or system Danio rerio; conditions: in vivo
PC-3 = experiment: Cytotoxicity against human PC-3 cells assessed as cell growth inhibition at 4.5 to 10 nM incubated for 48 hrs by MTT assay relative to control; format: functional; conditions: dose 4.5-10 nM
NCI-H460 [31] = experiment: Cytotoxicity against human NCI-H460 cells assessed as cell growth inhibition at 4.5 to 10 nM incubated for 48 hrs by MTT assay relative to control; format: functional; conditions: dose 4.5-10 nM
NCI-H1975 [32] = experiment: Cytotoxicity against human NCI-H1975 cells assessed as cell growth inhibition at 123 nM by MTT assay; format: functional, cell-based; conditions: time 24-70 hrs, TDE = time-dependent effect
NCI-H1975 [33] = experiment: Induction of apoptosis in human NCI-H1975 cells at 50 to 1600 nM incubated for 24 hrs by Annexin V-FITC/PI staining based flow cytometry; format: functional, cell-based; conditions: dose 50-1600 nM
[34] = Developmental toxicity in zebrafish AB zygotes assessed as lethal effect at 2 to 4 uM treated at 6 hrs post-fertilization measured at 72 hrs post-fertilization; design: species or system Danio rerio; conditions: in vivo, 66 h, dose 2-4 µM
[35] = Renal toxicity in fluorescent transgenic zebrafish at 0.5 to 2 uM treated for 48 hrs by fluorescence microscopy; design: species or system Danio rerio; conditions: in vivo, dose 0.5-2 µM
[36] = Renal toxicity in zebrafish assessed as increase in Kim1 expression at 0.5 to 2 uM treated for 48 hrs by RT-qPCR analysis; design: species or system Danio rerio; conditions: in vivo, dose 0.5-2 µM
[37] = Renal toxicity in zebrafish assessed as increase in TNF-alpha expression at 0.5 to 2 uM treated for 48 hrs by RT-qPCR analysis; design: species or system Danio rerio; conditions: in vivo, dose 0.5-2 µM

SMILES | Drug uptake [3] | inhibition (NCI-H1975 [8]) | Activity [9] | Activity [11] | Activity [14] | Activity [15] | Activity [16] | mortality at 24 h, 0.5 µM [17] | mortality at 1 µM [18] | mortality at 2 µM [19] | mortality at 4 µM [20] | Activity [21] | Activity [22] | Activity [24] | Activity [25] | Activity [26] | Activity [27] | Activity [28] | Activity [29] | further results
CC(C)[C@]12O[C@H]1[C@@H]1O[C@]13[C@]1(O[C@H]1C[C@H]1C4=C(CC[C@@]13C)C(=O)OC4)[C@@H]2OC(=O)CCCCCCCC[n+]1ccc(/C=C/c2c[nH]c3ccccc23)cc1.[Br-] | Active | Active | Non-Toxic | Non-Toxic | 2.22% | 13.33% | 33.33% | 2.22% | 6.67% | 6.67% | 11.1% | 95.17% | 85% | 4.83% | 15.05% | 61.46% | 51.53% | 38.54% | 48.47% | IC50 (NCI-H460 [1]): 4.78 µM; Drug uptake [2]: Active; Activity (NCI-H1975 [4]): Active; Activity (NCI-H1975 [5]): Active; Activity (NCI-H1975 [6]): Dose-Dependent Effect; inhibition (NCI-H1975 [7]): Active; inhibition (NCI-H1975 [10]): Active; Activity [12]: Toxic; Activity [13]: Toxic; Activity [23]: 76.24%; Activity [30]: 72.82%
CC(C)[C@]12O[C@H]1[C@@H]1O[C@@]13[C@@]1(C)CCC4=C(COC4=O)[C@@H]1C[C@@H]1O[C@@]13C2=O [TRIPTONIDE] | Active | Active | Toxic | Toxic | 6.67% | 13.33% | 48.89% | 2.22% | 11.1% | 13.3% | 22.2% | 87.8% | 45.38% | 12.2% | 54.62% | 50.55% | 23.09% | 49.45% | 76.91% | Imax (PC-3): ~60%; Imax (NCI-H460 [31]): ~40%; inhibition (NCI-H1975 [32]): Tde; Activity (NCI-H1975 [33]): Active; Activity [34]: Toxic; Activity [35]: Toxic; Activity [36]: Toxic; Activity [37]: Toxic
